According to PubChem BioAssay (NCI):
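Exposure lasted 48 hours, with cells grown in 96-well plates and compounds tested at five concentrations. The concentration for full growth arrest is given as TGI.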

Columns and labels:
Test in all cases: NCI-60 cell line screen, 48 h
[1] = test system: IGROV1 ovarian
[2] = test system: SR leukemia
[3] = test system: HL-60(TB) leukemia
[4] = test system: HCT-116 colon
[5] = test system: OVCAR-5 ovarian
[6] = test system: K-562 leukemia
[7] = test system: OVCAR-8 ovarian
[8] = test system: HOP-62 NSCLC
[9] = test system: NCI/ADR-RES ovarian
[10] = test system: A549 NSCLC
[11] = test system: U251 CNS
[12] = test system: CAKI-1 renal
[13] = test system: HCT-15 colon
[14] = test system: NCI-H23 lung
[15] = test system: SF-268 CNS
[16] = test system: COLO 205 colon
[17] = test system: SN12C renal
[18] = test system: NCI-H226 lung
[19] = test system: UO-31 renal
[20] = test system: MCF7 breast
[21] = test system: A498 renal
[22] = test system: RXF 393 renal
[23] = test system: MOLT-4 leukemia
[24] = test system: MDA-MB-231 breast
[25] = test system: ACHN renal
[26] = test system: SK-OV-3 ovarian
[27] = test system: HOP-92 NSCLC
[28] = test system: SK-MEL-2 melanoma
[29] = test system: M14 melanoma
[30] = test system: MDA-N
[31] = test system: SK-MEL-28 melanoma
[32] = test system: T-47D breast
[33] = test system: DU-145 prostate
[34] = test system: KM12 colon
[35] = test system: EKVX NSCLC
[36] = test system: TK-10 renal
[37] = test system: HT29 colon
[38] = test system: 786-0 renal
[39] = test system: MDA-MB-435
[40] = test system: UACC-62 melanoma
[41] = test system: BT-549 breast
[42] = test system: HS 578T breast
[43] = test system: SNB-75 CNS
[44] = test system: LOX IMVI melanoma
[45] = test system: OVCAR-3 ovarian
[46] = test system: SF-539 CNS
[47] = test system: SW-620 colon
[48] = test system: SF-295 CNS
[49] = test system: OVCAR-4 ovarian
[50] = test system: SNB-19 CNS
[51] = test system: NCI-H460 lung
[52] = test system: HCC-2998 colon
[53] = test system: NCI-H522 lung
[54] = test system: MALME-3M melanoma
[55] = test system: PC-3 prostate
[56] = test system: UACC-257 melanoma
[57] = test system: SK-MEL-5 melanoma
[58] = test system: RPMI-8226 leukemia
[59] = test system: CCRF-CEM leukemia

CC1CCCCCC(=O)c2c(O)cc(O)cc2CC(=O)O1 (stereo not given)
TGI [1]: > 100 µM | TGI [2]: > 100 µM | TGI [3]: > 100 µM | TGI [4]: > 100 µM | TGI [5]: > 100 µM | TGI [6]: > 100 µM | TGI [7]: > 100 µM | TGI [8]: > 100 µM | TGI [9]: > 100 µM | TGI [10]: > 100 µM | TGI [11]: > 100 µM | TGI [12]: > 100 µM | TGI [13]: > 100 µM | TGI [14]: > 100 µM | TGI [15]: > 100 µM | TGI [16]: > 100 µM | TGI [17]: > 100 µM | TGI [18]: > 100 µM | TGI [19]: > 100 µM | TGI [20]: > 100 µM | TGI [21]: > 100 µM | TGI [22]: > 100 µM | TGI [23]: > 100 µM | TGI [24]: > 100 µM | TGI [25]: > 100 µM | TGI [26]: > 100 µM | TGI [27]: > 100 µM | TGI [28]: > 100 µM | TGI [29]: > 100 µM | TGI [30]: > 100 µM | TGI [31]: > 100 µM | TGI [32]: > 100 µM | TGI [33]: > 100 µM | TGI [34]: > 100 µM | TGI [35]: > 100 µM | TGI [36]: > 100 µM | TGI [37]: > 100 µM | TGI [38]: > 100 µM | TGI [39]: > 100 µM | TGI [40]: > 100 µM | TGI [41]: > 100 µM | TGI [42]: > 100 µM | TGI [43]: > 100 µM | TGI [44]: > 100 µM | TGI [45]: > 100 µM | TGI [46]: > 100 µM | TGI [47]: > 100 µM | TGI [48]: > 100 µM | TGI [49]: > 100 µM | TGI [50]: > 100 µM | TGI [51]: > 100 µM | TGI [52]: > 100 µM | TGI [53]: > 100 µM | TGI [54]: > 100 µM | TGI [55]: > 100 µM | TGI [56]: > 100 µM | TGI [57]: > 100 µM | TGI [58]: > 100 µM | TGI [59]: > 100 µM

COC1=C(C(c2cc(OC)c(OC)c(OC)c2)c2cc3c(cc2OC)OCO3)C(=O)OC1 (stereo not given)
TGI [1]: > 84.8 µM | TGI [2]: > 61.7 µM | TGI [3]: 49.9 µM | TGI [4]: 33.5 µM | TGI [5]: > 100 µM | TGI [6]: > 100 µM | TGI [7]: 73.9 µM | TGI [8]: > 84 µM | TGI [9]: 26.2 µM | TGI [10]: > 67.1 µM | TGI [11]: > 96.7 µM | TGI [12]: > 100 µM | TGI [13]: > 100 µM | TGI [14]: > 80 µM | TGI [15]: > 79.8 µM | TGI [16]: 53.2 µM | TGI [17]: > 100 µM | TGI [18]: 79.7 µM | TGI [19]: 54.9 µM | TGI [20]: > 82.3 µM | TGI [21]: > 71.9 µM | TGI [22]: 43.6 µM | TGI [23]: > 100 µM | TGI [24]: > 93.5 µM | TGI [25]: > 79.3 µM | TGI [26]: > 78.6 µM | TGI [27]: > 100 µM | TGI [28]: > 100 µM | TGI [29]: 63.6 µM | TGI [30]: 17.1 µM | TGI [31]: 87.9 µM | TGI [32]: > 100 µM | TGI [33]: 70.5 µM | TGI [34]: 40.9 µM | TGI [35]: > 81.6 µM | TGI [36]: > 73.2 µM | TGI [37]: 51.4 µM | TGI [38]: 65.4 µM | TGI [39]: 17.5 µM | TGI [40]: > 87 µM | TGI [41]: > 100 µM | TGI [42]: > 58.4 µM | TGI [43]: > 64.3 µM | TGI [44]: > 100 µM | TGI [45]: > 61 µM | TGI [46]: 41.2 µM | TGI [47]: > 100 µM | TGI [48]: 51.4 µM | TGI [49]: > 95.1 µM | TGI [50]: > 95.6 µM | TGI [51]: > 84.7 µM | TGI [52]: > 100 µM | TGI [53]: > 100 µM | TGI [54]: > 73.2 µM | TGI [55]: > 70.4 µM | TGI [56]: > 100 µM | TGI [57]: > 62.6 µM | TGI [58]: > 100 µM | TGI [59]: > 68.8 µM

CCCc1nnc2sc(COc3ccc(OCc4nn5c(CCC)nnc5s4)c(Cl)c3)nn12
TGI [1]: > 100 µM | TGI [2]: 64.1 µM | TGI [3]: 40.9 µM | TGI [4]: > 100 µM | TGI [5]: > 100 µM | TGI [6]: > 100 µM | TGI [7]: > 100 µM | TGI [8]: > 100 µM | TGI [9]: > 100 µM | TGI [10]: > 100 µM | TGI [11]: > 100 µM | TGI [12]: 60 µM | TGI [13]: > 100 µM | TGI [14]: > 100 µM | TGI [15]: > 100 µM | TGI [16]: > 100 µM | TGI [17]: > 100 µM | TGI [18]: > 100 µM | TGI [19]: 31.8 µM | TGI [20]: 55.3 µM | TGI [21]: 74.5 µM | TGI [22]: > 100 µM | TGI [23]: > 100 µM | TGI [24]: > 100 µM | TGI [25]: 59.1 µM | TGI [26]: > 100 µM | TGI [27]: 80.6 µM | TGI [28]: > 100 µM | TGI [29]: 73 µM | TGI [30]: 45.4 µM | TGI [31]: > 100 µM | TGI [32]: 39.6 µM | TGI [33]: > 100 µM | TGI [34]: > 100 µM | TGI [35]: 48.1 µM | TGI [36]: 93.5 µM | TGI [37]: 98.9 µM | TGI [38]: > 100 µM | TGI [39]: 59 µM | TGI [40]: 59.4 µM | TGI [41]: > 100 µM | TGI [42]: > 100 µM | TGI [43]: 73.7 µM | TGI [44]: > 100 µM | TGI [45]: > 100 µM | TGI [46]: > 100 µM | TGI [47]: > 100 µM | TGI [48]: > 100 µM | TGI [49]: 74.6 µM | TGI [50]: > 100 µM | TGI [51]: 78.1 µM | TGI [52]: 64.1 µM | TGI [53]: > 100 µM | TGI [54]: > 100 µM | TGI [55]: > 100 µM | TGI [56]: 51.1 µM | TGI [57]: 21.2 µM | TGI [58]: > 100 µM

CC(C)(C)N(Cc1ccccc1)C(=O)/C=C\S(=O)c1ccccc1 (stereo not given)
TGI [1]: 17.8 µM | TGI [2]: > 29.6 µM | TGI [3]: 6.54 µM | TGI [4]: 7.05 µM | TGI [5]: 28.8 µM | TGI [6]: > 100 µM | TGI [7]: 4.16 µM | TGI [8]: 21.2 µM | TGI [9]: 13.7 µM | TGI [10]: 25.4 µM | TGI [11]: 15.5 µM | TGI [12]: 18.4 µM | TGI [13]: 18 µM | TGI [14]: 7.74 µM | TGI [15]: 6.96 µM | TGI [16]: 12.8 µM | TGI [17]: 8.66 µM | TGI [18]: 16.4 µM | TGI [19]: 7.71 µM | TGI [20]: 16.4 µM | TGI [21]: 26.5 µM | TGI [22]: 13.8 µM | TGI [23]: 7.39 µM | TGI [24]: 11.8 µM | TGI [25]: 15.9 µM | TGI [26]: 19.9 µM | TGI [27]: 10.8 µM | TGI [28]: 8.79 µM | TGI [29]: 8.91 µM | TGI [30]: 8.64 µM | TGI [31]: 21.7 µM | TGI [32]: 22.2 µM | TGI [33]: 13.6 µM | TGI [34]: 18.1 µM | TGI [35]: 24.1 µM | TGI [36]: 18.5 µM | TGI [37]: 14.3 µM | TGI [38]: 4.87 µM | TGI [39]: 11.3 µM | TGI [40]: 15.2 µM | TGI [41]: 12.9 µM | TGI [42]: 7.19 µM | TGI [43]: 23.1 µM | TGI [44]: 5.7 µM | TGI [45]: 7.41 µM | TGI [46]: 9.67 µM | TGI [47]: 9.13 µM | TGI [48]: 27.3 µM | TGI [49]: 9.25 µM | TGI [50]: 23.6 µM | TGI [51]: 16 µM | TGI [52]: 15.5 µM | TGI [53]: 2.7 µM | TGI [54]: 12.2 µM | TGI [55]: 13.2 µM | TGI [56]: 16.2 µM | TGI [57]: 15.9 µM | TGI [58]: 7.78 µM | TGI [59]: > 44.9 µM
